This experiment deals with obsessive-compulsive symptoms. The experiment can be described thus: Treatment of two patients having obsessive-compulsive symptoms with deramciclane. To be noted: one 15 mg tablet twice daily (30 mg/day), 8 week treatment period. The format is in vivo. As for the experimental part: The efficacy of deramciclane in the treatment of OCD, is illustrated with two patients having obsessive-compulsive symptoms. These patients received one 15 mg tablet of deramciclane twice daily (=30 mg/day) for an eight-week active treatment period.

`CN(C)CCO[C@]1(c2ccccc2)C[C@H]2CC[C@]1(C)C2(C)C` [deramciclane, (1R,2S,4R)-(−)-2-phenyl 2-(dimethylaminoethoxy)-1,7,7-trimethyl-bicyclo[2.2.1]heptane]: the “obsessive-compulsive symptoms as assessed by the responsible physician” value is given as “reduced in a clinically significant way”.

Source of the values: patent US6335372B1, “Treatment of obsessive compulsive disorder” (Orion Corporation, priority 2000, dated 2002).
